In ChEMBL document CHEMBL4813977, “Discovery of potent colony-stimulating factor 1 receptor inhibitors by replacement of hinge-binder moieties” (Eur J Med Chem, 2021):
The source made the active and inactive calls. The rule behind the calls is not given here.

What was measured:
[1] = target: Tyrosine-protein kinase JAK2 (Homo sapiens) (UniProt O60674); experiment: Inhibition of human JAK2 at 0.1 uM using poly[Glu:Tyr] (4:1) as substrate in presence of [gamma-33P]-ATP by radiometric assay relative to control
[2] = target: Mitogen-activated protein kinase 1 (Homo sapiens) (UniProt P28482); experiment: Inhibition of human ERK2 at 0.1 uM using MBP as substrate in presence of [gamma-33P]-ATP by radiometric assay relative to control
Mitogen-activated protein kinase 1 (Homo sapiens), sequence (P28482 whole entry): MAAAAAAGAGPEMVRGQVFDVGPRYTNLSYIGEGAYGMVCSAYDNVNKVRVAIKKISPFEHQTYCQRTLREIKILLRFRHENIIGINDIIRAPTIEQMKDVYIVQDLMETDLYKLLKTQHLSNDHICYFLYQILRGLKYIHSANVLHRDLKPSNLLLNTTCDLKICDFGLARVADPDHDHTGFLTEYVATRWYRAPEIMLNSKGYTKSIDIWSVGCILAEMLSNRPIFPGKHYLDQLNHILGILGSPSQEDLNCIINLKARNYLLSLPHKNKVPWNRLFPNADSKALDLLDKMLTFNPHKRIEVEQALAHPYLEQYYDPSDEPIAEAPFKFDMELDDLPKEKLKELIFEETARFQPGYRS

[3] = target: Non-receptor tyrosine-protein kinase TYK2 (Homo sapiens) (UniProt P29597); experiment: Inhibition of human TYK2 at 0.1 uM using KKSRGDYMTMQIG as substrate in presence of [gamma-33P]-ATP by radiometric assay relative to control
[4] = target: Tyrosine-protein kinase Lyn (Homo sapiens) (UniProt P07948); experiment: Inhibition of human LYN at 0.1 uM using poly[Glu:Tyr] (4:1) as substrate in presence of [gamma-33P]-ATP by radiometric assay relative to control
[5] = target: Mast/stem cell growth factor receptor Kit (Homo sapiens) (UniProt P10721); settings: dose 10.0 nM
Mast/stem cell growth factor receptor Kit (Homo sapiens), sequence (P10721 whole entry): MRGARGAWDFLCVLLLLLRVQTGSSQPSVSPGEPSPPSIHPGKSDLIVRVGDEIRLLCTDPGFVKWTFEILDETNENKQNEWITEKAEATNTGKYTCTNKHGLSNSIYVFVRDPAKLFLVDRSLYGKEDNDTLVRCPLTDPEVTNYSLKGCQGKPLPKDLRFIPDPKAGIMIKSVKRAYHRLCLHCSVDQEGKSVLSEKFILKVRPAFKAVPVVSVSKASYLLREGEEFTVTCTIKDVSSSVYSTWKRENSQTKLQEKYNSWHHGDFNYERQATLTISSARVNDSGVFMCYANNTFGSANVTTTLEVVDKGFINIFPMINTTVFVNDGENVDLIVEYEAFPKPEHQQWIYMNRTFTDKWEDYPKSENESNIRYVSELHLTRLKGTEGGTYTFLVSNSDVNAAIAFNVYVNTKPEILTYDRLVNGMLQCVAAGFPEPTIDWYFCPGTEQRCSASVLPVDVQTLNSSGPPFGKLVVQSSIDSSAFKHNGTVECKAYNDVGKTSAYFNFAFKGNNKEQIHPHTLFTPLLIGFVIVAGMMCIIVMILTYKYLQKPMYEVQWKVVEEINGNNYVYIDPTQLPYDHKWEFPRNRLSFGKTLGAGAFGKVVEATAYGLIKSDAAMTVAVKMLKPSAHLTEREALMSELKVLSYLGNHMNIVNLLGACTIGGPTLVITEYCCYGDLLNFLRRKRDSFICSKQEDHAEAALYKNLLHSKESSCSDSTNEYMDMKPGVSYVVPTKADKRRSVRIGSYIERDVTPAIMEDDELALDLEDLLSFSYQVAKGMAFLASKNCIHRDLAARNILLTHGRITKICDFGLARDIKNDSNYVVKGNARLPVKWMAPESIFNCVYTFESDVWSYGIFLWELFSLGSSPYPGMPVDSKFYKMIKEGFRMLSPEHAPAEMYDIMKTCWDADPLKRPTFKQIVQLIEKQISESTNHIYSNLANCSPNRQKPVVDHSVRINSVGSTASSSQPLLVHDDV
Description: Inhibition of human c-KIT at 10 nM using poly[Glu:Tyr] (4:1) as substrate in presence of [gamma-33P]-ATP by radiometric assay relative to control

[6] = target: Macrophage colony-stimulating factor 1 receptor (Homo sapiens) (UniProt P07333); settings: dose 10.0 nM
Macrophage colony-stimulating factor 1 receptor (Homo sapiens), sequence (P07333 whole entry): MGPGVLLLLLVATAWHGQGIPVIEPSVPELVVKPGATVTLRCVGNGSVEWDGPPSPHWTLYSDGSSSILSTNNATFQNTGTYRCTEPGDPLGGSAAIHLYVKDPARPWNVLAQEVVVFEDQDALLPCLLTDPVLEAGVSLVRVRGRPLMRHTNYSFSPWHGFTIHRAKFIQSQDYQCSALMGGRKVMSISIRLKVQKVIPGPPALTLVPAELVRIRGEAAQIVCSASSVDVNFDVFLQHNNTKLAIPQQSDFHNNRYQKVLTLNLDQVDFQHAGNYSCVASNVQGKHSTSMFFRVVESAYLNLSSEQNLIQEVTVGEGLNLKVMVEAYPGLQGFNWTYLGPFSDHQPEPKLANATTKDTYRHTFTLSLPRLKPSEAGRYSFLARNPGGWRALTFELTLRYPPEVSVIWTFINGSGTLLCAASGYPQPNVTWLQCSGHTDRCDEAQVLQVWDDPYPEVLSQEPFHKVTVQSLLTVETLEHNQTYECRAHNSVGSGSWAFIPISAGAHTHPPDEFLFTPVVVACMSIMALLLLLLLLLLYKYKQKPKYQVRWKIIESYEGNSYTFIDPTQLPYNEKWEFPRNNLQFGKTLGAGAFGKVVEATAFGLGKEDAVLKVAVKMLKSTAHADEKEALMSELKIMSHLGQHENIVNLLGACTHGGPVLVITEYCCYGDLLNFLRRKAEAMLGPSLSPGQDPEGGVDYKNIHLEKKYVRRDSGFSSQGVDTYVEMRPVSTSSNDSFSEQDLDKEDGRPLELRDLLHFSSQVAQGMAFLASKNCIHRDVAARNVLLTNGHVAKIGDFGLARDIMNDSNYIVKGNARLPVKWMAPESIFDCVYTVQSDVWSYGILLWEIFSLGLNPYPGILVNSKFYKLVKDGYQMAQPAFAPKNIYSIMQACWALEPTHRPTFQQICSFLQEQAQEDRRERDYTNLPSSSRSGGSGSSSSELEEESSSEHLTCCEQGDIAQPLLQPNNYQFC
Description: Inhibition of human CSF1R at 10 nM using poly[Glu:Tyr] (4:1) as substrate in presence of [gamma-33P]-ATP by radiometric assay relative to control

[7] = target: T1, Macrophage colony-stimulating factor 1 receptor (Mus musculus) (UniProt P09581); experiment: Inhibition of CSF1R phosphorylation in mouse RAW 264.7 cells at 10 to 100 nM preincubated for 5 hrs followed by CSF stimulation for 10 mins by Western blot analysis; assay type: cell-based; settings: RAW264.7, dose 10-100 nM, time 310.0 min
T1 sequence (whole entry): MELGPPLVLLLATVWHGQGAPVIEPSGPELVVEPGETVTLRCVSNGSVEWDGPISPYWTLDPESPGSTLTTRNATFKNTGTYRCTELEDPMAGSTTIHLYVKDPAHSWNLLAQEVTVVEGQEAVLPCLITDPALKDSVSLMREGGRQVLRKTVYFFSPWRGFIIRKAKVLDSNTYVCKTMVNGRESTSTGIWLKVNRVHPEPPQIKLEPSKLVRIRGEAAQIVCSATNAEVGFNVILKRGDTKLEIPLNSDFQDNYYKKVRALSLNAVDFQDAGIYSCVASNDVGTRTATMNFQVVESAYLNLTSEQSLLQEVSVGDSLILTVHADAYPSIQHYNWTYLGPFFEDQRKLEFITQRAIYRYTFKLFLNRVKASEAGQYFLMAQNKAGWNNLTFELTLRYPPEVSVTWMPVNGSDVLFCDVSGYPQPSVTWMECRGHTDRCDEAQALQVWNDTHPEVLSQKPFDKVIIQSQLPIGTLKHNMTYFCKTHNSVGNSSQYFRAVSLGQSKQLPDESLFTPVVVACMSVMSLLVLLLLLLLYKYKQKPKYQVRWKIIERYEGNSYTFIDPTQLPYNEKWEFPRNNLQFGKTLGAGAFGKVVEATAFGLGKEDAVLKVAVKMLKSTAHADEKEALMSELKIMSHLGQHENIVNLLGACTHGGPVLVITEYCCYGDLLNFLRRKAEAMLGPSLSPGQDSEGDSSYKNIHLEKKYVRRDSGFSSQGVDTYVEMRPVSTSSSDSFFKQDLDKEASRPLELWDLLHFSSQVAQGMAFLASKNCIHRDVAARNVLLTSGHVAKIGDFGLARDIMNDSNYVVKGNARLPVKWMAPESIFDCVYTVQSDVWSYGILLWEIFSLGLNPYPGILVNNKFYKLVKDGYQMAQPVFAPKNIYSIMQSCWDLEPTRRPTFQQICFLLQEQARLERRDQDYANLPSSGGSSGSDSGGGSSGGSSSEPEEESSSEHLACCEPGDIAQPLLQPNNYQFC

Homo sapiens = species on record: Homo sapiens; experiment: Inhibition of human PKA at 0.1 uM using LCGRTGRRNSI as substrate in presence of [gamma-33P]-ATP by radiometric assay relative to control
[8] = target: Serine/threonine-protein kinase B-raf (Homo sapiens) (UniProt P15056); experiment: Inhibition of human BRAF at 0.1 uM using MEK1 (K97R) as substrate in presence of [gamma-33P]-ATP by radiometric assay relative to control
[9] = target: Epidermal growth factor receptor (Homo sapiens) (UniProt P00533); experiment: Inhibition of human EGFR at 0.1 uM using poly[Glu:Tyr] (4:1) as substrate in presence of [gamma-33P]-ATP by radiometric assay relative to control
[10] = target: Receptor-type tyrosine-protein kinase FLT3 (Homo sapiens) (UniProt P36888); settings: dose 100.0 nM
Receptor-type tyrosine-protein kinase FLT3 (Homo sapiens), sequence (P36888 whole entry): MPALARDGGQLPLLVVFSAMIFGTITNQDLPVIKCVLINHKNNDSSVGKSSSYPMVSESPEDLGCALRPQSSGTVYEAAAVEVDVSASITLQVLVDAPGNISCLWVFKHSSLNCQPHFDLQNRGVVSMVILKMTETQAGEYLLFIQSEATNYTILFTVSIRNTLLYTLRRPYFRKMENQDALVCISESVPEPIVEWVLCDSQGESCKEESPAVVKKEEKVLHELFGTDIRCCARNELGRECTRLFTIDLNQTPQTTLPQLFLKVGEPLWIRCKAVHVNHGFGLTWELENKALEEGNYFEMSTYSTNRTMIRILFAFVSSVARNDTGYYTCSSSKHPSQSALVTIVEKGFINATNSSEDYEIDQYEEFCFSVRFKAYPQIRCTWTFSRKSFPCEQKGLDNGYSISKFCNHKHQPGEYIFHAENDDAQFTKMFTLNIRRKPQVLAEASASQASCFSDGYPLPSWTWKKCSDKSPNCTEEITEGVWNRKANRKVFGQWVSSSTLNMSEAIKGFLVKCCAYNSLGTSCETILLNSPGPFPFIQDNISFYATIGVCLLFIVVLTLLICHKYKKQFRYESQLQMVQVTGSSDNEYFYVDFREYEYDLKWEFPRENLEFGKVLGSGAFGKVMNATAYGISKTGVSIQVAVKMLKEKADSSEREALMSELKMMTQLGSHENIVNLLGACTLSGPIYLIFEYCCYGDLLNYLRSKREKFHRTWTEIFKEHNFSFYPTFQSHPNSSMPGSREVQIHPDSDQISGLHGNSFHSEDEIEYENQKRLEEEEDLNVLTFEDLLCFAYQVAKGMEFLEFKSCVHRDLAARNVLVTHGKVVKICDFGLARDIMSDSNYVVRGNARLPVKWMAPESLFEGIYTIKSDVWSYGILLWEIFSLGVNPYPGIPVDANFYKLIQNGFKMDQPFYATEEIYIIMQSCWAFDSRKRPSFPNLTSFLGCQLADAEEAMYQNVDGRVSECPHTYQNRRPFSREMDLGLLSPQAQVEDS

[11] = target: T2, Tyrosine-protein kinase JAK3 (Homo sapiens) (UniProt P52333); experiment: Inhibition of human JAK3 at 0.1 uM using GGEEEEYFELVKKKK as substrate in presence of [gamma-33P]-ATP by radiometric assay relative to control
T2 sequence (whole entry): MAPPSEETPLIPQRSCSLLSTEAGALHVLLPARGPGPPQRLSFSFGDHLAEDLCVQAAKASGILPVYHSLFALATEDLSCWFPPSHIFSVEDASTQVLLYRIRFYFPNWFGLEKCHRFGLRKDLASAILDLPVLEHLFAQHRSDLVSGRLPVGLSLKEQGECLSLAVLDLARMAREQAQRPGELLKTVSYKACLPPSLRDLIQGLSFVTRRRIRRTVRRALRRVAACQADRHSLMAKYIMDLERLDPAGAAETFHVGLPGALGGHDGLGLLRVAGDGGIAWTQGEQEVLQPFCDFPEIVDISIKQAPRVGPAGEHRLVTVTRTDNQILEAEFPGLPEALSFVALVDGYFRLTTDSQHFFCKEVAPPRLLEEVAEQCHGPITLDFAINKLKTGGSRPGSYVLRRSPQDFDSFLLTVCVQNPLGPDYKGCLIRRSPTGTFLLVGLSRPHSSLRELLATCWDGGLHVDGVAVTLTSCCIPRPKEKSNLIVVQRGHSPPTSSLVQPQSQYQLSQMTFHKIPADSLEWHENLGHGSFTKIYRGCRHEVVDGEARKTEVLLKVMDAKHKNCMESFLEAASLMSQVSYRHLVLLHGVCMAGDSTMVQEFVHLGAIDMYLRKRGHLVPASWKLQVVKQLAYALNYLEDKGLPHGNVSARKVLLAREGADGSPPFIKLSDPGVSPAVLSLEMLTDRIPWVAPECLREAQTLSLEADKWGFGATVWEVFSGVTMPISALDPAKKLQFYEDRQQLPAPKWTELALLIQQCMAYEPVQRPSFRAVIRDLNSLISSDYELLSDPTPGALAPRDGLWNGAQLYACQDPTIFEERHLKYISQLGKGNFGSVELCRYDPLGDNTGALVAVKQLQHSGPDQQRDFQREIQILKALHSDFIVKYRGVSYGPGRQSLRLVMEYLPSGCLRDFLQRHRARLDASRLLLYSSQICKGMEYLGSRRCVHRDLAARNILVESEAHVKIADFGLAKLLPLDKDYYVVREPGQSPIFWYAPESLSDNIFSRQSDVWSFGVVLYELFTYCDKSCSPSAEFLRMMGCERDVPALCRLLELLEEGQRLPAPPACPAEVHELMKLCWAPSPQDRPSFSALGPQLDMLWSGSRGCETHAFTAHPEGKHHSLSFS

[12] = target: Tyrosine-protein kinase Lck (Homo sapiens) (UniProt P06239); experiment: Inhibition of human LCK at 0.1 uM using poly[Glu:Tyr] (4:1) as substrate jn presence of [gamma-33P]-ATP by radiometric assay relative to control
[13] = target: Macrophage colony-stimulating factor 1 receptor (Homo sapiens) (UniProt P07333); settings: dose 100.0 nM
Description: Inhibition of human CSF1R at 100 nM using poly[Glu:Tyr] (4:1) as substrate in presence of [gamma-33P]-ATP by radiometric assay relative to control

[14] = target: Tyrosine-protein kinase ABL1 (Homo sapiens) (UniProt P00519); experiment: Inhibition of human ABL1 at 0.1 uM using EAIYAAPFAKKK as substrate in presence of [gamma-33P]-ATP by radiometric assay relative to control
Tyrosine-protein kinase ABL1 (Homo sapiens), sequence (P00519 whole entry): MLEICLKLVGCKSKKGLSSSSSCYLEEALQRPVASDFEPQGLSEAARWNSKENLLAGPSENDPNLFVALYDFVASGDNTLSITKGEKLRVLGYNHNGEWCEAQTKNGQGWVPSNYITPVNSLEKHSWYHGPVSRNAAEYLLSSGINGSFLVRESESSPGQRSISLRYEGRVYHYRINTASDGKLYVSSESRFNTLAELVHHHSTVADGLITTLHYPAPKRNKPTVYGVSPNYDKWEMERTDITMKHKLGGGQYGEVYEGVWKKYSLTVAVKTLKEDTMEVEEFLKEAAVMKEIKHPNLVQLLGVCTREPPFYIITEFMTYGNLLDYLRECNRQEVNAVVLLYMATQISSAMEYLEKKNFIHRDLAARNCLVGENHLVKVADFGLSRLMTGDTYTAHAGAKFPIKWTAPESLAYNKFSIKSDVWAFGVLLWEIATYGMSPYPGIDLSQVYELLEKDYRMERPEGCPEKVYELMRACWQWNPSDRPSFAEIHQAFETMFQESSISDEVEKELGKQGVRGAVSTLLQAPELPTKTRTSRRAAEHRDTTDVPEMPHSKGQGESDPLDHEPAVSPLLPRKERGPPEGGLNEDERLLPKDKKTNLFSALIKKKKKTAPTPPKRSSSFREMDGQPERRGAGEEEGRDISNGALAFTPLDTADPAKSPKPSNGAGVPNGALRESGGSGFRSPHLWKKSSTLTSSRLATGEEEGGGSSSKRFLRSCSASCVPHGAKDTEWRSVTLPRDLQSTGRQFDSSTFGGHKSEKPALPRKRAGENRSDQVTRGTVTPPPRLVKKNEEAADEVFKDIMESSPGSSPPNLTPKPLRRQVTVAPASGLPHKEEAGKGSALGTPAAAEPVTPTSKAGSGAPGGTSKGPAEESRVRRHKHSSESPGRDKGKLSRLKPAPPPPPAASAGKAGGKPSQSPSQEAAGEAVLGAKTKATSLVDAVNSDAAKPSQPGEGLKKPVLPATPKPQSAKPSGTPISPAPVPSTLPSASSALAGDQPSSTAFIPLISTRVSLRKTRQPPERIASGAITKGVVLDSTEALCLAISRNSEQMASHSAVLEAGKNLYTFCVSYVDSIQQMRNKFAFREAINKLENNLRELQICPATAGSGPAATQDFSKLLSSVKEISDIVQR

[15] = target: ALK tyrosine kinase receptor (Homo sapiens) (UniProt Q9UM73); experiment: Inhibition of human ALK at 0.1 uM using poly[Glu:Tyr] (4:1) as substrate in presence of [gamma-33P]-ATP by radiometric assay relative to control
[16] = target: Dual specificity mitogen-activated protein kinase kinase 1 (Homo sapiens) (UniProt Q02750); experiment: Inhibition of human MEK1 at 0.1 uM using ERK2 (K52R) as substrate in presence of [gamma-33P]-ATP by radiometric assay relative to control
Dual specificity mitogen-activated protein kinase kinase 1 (Homo sapiens), sequence (Q02750 whole entry): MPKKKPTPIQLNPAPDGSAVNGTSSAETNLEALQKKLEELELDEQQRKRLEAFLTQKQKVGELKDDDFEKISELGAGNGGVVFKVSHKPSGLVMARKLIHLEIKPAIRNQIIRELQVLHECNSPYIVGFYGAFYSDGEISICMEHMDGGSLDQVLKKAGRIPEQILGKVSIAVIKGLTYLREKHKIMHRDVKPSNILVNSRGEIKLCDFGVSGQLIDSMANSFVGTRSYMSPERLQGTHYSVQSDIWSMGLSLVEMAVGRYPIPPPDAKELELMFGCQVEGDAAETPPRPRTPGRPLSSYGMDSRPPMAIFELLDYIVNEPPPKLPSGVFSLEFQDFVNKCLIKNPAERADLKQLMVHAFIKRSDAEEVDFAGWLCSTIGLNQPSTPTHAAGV

[17] = target: Receptor-type tyrosine-protein kinase FLT3 (Homo sapiens) (UniProt P36888); settings: dose 10.0 nM
[18] = target: Mast/stem cell growth factor receptor Kit (Homo sapiens) (UniProt P10721); settings: dose 100.0 nM
Description: Inhibition of human c-KIT at 100 nM using poly[Glu:Tyr] (4:1) as substrate in presence of [gamma-33P]-ATP by radiometric assay relative to control

inhibition [1]: 0%
inhibition [2]: 0%
inhibition [3]: 16%
inhibition [4]: 93%
inhibition [5]: 35%
inhibition [6]: 87%
inhibition [7]: Active
inhibition (Homo sapiens): 42%
inhibition [8]: 39%
inhibition [9]: 60%
inhibition [10]: 4%
inhibition [11]: 0%
inhibition [12]: 75%
inhibition [13]: 97%
inhibition [14]: 79%
inhibition [15]: 41%
inhibition [16]: 30%
inhibition [17]: 3%
inhibition [18]: 58%
Structure (SMILES): Cc1ccc(NC(=O)c2ccc(C(F)(F)F)nc2)cc1NC(=O)c1cnc2ccccn12
